# Literature values, collected in patent publication US20210369631A1, “A LIPID-POLYMER HYBRID NANOPARTICLE” (NANOBRID INNOVATIONS PRIVATE LIMITED, priority 2019, published 2021).
row,SMILES,log P
1,COC1=C(OC)C(=O)C(C/C=C(\C)CC/C=C(\C)CC/C=C(\C)CC/C=C(\C)CC/C=C(\C)CC/C=C(\C)CC/C=C(\C)CC/C=C(\C)CC/C=C(\C)CCC=C(C)C)=C(C)C1=O [coenzyme Q10],10
2,O=C(CCCCCCC(=O)Nc1ccccc1)NO [Vorinostat],1.44
3,CCC(=O)O[C@]1(C(=O)CCl)[C@@H](C)C[C@H]2[C@@H]3CCC4=CC(=O)C=C[C@]4(C)[C@@]3(F)[C@@H](O)C[C@@]21C [clobetasol propionate],3.49
